Results published in PubChem BioAssay (NCI).
“And” between values parts separate entries of the source, which are not always exact repeats. Equal values may be shown once.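 Five compound concentrations were applied to cells in 96-well plates for 48 hours; endpoints were derived by simple linear interpolation of the resulting dose-response curve. The concentration for 50% growth inhibition is given as GI50. TGI: concentration producing complete growth inhibition.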

Assays:
Assay in all cases: growth of human tumour cells (NCI), 48 h
[1] = test system: SK-MEL-5 melanoma
[2] = test system: OVCAR-4 ovarian
[3] = test system: MDA-MB-435
[4] = test system: SK-MEL-28 melanoma
[5] = test system: SF-295 CNS
[6] = test system: K-562 leukemia
[7] = test system: SNB-19 CNS
[8] = test system: OVCAR-3 ovarian
[9] = test system: KM12 colon
[10] = test system: T-47D breast
[11] = test system: NCI-H460 lung
[12] = test system: HCT-116 colon
[13] = test system: IGROV1 ovarian
[14] = test system: MCF7 breast
[15] = test system: HS 578T breast
[16] = test system: NCI/ADR-RES ovarian
[17] = test system: SK-MEL-2 melanoma
[18] = test system: UACC-257 melanoma
[19] = test system: HCT-15 colon
[20] = test system: COLO 205 colon
[21] = test system: 786-0 renal
[22] = test system: BT-549 breast
[23] = test system: SR leukemia
[24] = test system: HL-60(TB) leukemia
[25] = test system: NCI-H522 lung
[26] = test system: HT29 colon
[27] = test system: RXF 393 renal
[28] = test system: TK-10 renal
[29] = test system: SF-539 CNS
[30] = test system: SN12C renal
[31] = test system: M14 melanoma
[32] = test system: HOP-92 NSCLC
[33] = test system: CCRF-CEM leukemia
[34] = test system: HCC-2998 colon
[35] = test system: SNB-75 CNS
[36] = test system: NCI-H226 lung
[37] = test system: SF-268 CNS
[38] = test system: UO-31 renal
[39] = test system: UACC-62 melanoma
[40] = test system: HOP-62 NSCLC
[41] = test system: ACHN renal
[42] = test system: MALME-3M melanoma
[43] = test system: U251 CNS
[44] = test system: CAKI-1 renal
[45] = test system: NCI-H23 lung
[46] = test system: MDA-MB-231 breast
[47] = test system: MOLT-4 leukemia
[48] = test system: A498 renal
[49] = test system: OVCAR-8 ovarian
[50] = test system: EKVX NSCLC
[51] = test system: OVCAR-5 ovarian
[52] = test system: DU-145 prostate
[53] = test system: A549 NSCLC
[54] = test system: SW-620 colon
[55] = test system: PC-3 prostate
[56] = test system: LOX IMVI melanoma
[57] = test system: SK-OV-3 ovarian
[58] = test system: RPMI-8226 leukemia

COc1ccc([C@@]23Oc4cc(OC)cc(OC)c4[C@]2(O)[C@H](O)[C@H](C(N)=O)[C@H]3c2ccccc2)cc1
TGI [1]: 0.0329 µM and < 0.0139 µM | GI50 [2]: 0.0142 µM | TGI [3]: 0.0793 µM and 0.631 µM | GI50 [4]: < 0.0116 µM | TGI [5]: 0.0456 µM and < 0.01 µM | TGI [6]: > 100 µM | TGI [7]: 0.0999 µM | GI50 [8]: < 0.0129 µM | TGI [8]: 0.101 µM and 0.284 µM | TGI [9]: 0.0999 µM | TGI [10]: 0.21 µM and 0.0483 µM | TGI [11]: 0.19 µM | TGI [12]: 0.488 µM | TGI [13]: 0.0641 µM and < 0.0206 µM | TGI [14]: 0.112 µM | GI50 [15]: < 0.0135 µM | TGI [15]: 0.0914 µM and < 0.01 µM | GI50 [16]: 0.0504 µM | TGI [16]: 0.687 µM and 0.867 µM | GI50 [17]: < 0.0147 µM | TGI [17]: 0.0556 µM and 0.0738 µM | TGI [18]: 0.206 µM and < 0.0304 µM | GI50 [19]: 0.0177 µM | TGI [19]: 0.33 µM and 0.229 µM | TGI [20]: 0.0286 µM and 0.0116 µM | GI50 [21]: 0.018 µM | TGI [21]: 0.291 µM | TGI [22]: 0.0847 µM and < 0.0226 µM | GI50 [23]: 0.01 µM | GI50 [24]: < 0.01 µM | TGI [24]: 0.0785 µM | TGI [25]: 0.0737 µM and < 0.0104 µM | TGI [26]: 0.0659 µM and 0.0515 µM | GI50 [27]: < 0.0115 µM | TGI [27]: 0.0472 µM and 0.0136 µM | GI50 [28]: 0.0278 µM | TGI [28]: 0.101 µM and 0.0367 µM | TGI [29]: 0.0193 µM | GI50 [30]: < 0.0113 µM | TGI [30]: 0.0751 µM | TGI [31]: 0.0233 µM and < 0.01 µM | GI50 [32]: < 0.0153 µM | TGI [32]: 0.317 µM and 0.0541 µM | TGI [33]: > 100 µM | TGI [34]: 0.0697 µM and 0.0194 µM | GI50 [35]: < 0.01 µM | TGI [35]: 0.119 µM | TGI [36]: 0.0935 µM and < 0.0283 µM | GI50 [37]: < 0.0113 µM | TGI [37]: 0.0913 µM and < 0.01 µM | TGI [38]: 0.0765 µM and 0.0995 µM | GI50 [39]: < 0.016 µM | TGI [39]: 0.106 µM | TGI [40]: 0.216 µM and 0.0916 µM | TGI [41]: 0.0474 µM and 0.0476 µM | GI50 [42]: 0.0161 µM | TGI [42]: 0.0909 µM and < 0.01 µM | TGI [43]: 0.612 µM and 0.194 µM | TGI [44]: 0.0838 µM | TGI [45]: 0.0769 µM and 0.0157 µM | GI50 [46]: 0.0175 µM | TGI [46]: 0.126 µM and 0.0685 µM | TGI [47]: > 100 µM | GI50 [48]: < 0.013 µM | TGI [48]: < 0.0215 µM | GI50 [49]: < 0.0122 µM | TGI [50]: 0.108 µM and 0.158 µM | TGI [51]: 0.074 µM and < 0.0291 µM | TGI [52]: 0.105 µM and < 0.0219 µM

COc1cccc(Nc2nc3ccccc3c3occc23)c1
GI50 [1]: 6.16 µM | TGI [1]: 20.9 µM | GI50 [2]: 11.2 µM | TGI [2]: 29.8 µM | GI50 [3]: 10.7 µM | TGI [3]: 22.6 µM | GI50 [4]: 14.5 µM | TGI [4]: 29.9 µM | GI50 [5]: 3.92 µM | TGI [5]: 14.6 µM | GI50 [6]: 6.27 µM | TGI [6]: > 100 µM | GI50 [7]: 12.9 µM | TGI [7]: 25.8 µM | GI50 [8]: 9.1 µM | TGI [8]: 21.2 µM | GI50 [9]: 3.13 µM | TGI [9]: 10.7 µM | GI50 [10]: 4.1 µM | TGI [10]: 22.8 µM | GI50 [11]: 25.2 µM | TGI [11]: > 100 µM | GI50 [53]: 6.01 µM | TGI [53]: 22.4 µM | GI50 [12]: 15.3 µM | TGI [12]: 34.4 µM | GI50 [54]: 16.7 µM | TGI [54]: 34.3 µM | GI50 [13]: 4.95 µM | TGI [13]: 25.9 µM | GI50 [55]: 13.8 µM | TGI [55]: 34.3 µM | GI50 [14]: 43.7 µM | TGI [14]: > 100 µM | GI50 [15]: 9.07 µM | TGI [15]: 29.7 µM | GI50 [16]: 17.9 µM | TGI [16]: 32.1 µM | GI50 [17]: 13 µM | TGI [17]: 30.6 µM | GI50 [18]: 13.2 µM | TGI [18]: 26.8 µM | GI50 [19]: 13.2 µM | TGI [19]: > 100 µM | GI50 [20]: 9.49 µM | TGI [20]: 22 µM | GI50 [21]: 10.7 µM | TGI [21]: 23.7 µM | GI50 [22]: 10.4 µM | TGI [22]: 23 µM | GI50 [23]: 21.2 µM | TGI [23]: 95 µM | GI50 [24]: 45 µM | TGI [24]: > 100 µM | GI50 [25]: 9.3 µM | TGI [25]: 27 µM | GI50 [27]: 4.46 µM | TGI [27]: 19.8 µM | GI50 [28]: 5.79 µM | TGI [28]: 17.2 µM | GI50 [29]: 17.3 µM | TGI [29]: 35.1 µM | GI50 [30]: 12.1 µM | TGI [30]: 35.1 µM | GI50 [31]: 13.9 µM | TGI [31]: 28.6 µM | GI50 [32]: 13 µM | TGI [32]: 31.1 µM | GI50 [34]: 8.9 µM | TGI [34]: 21.8 µM | GI50 [37]: 13.9 µM | TGI [37]: 34.1 µM | GI50 [56]: 2.32 µM | TGI [56]: 8.39 µM | GI50 [57]: 8.48 µM | TGI [57]: 22.7 µM | GI50 [38]: 6.98 µM | TGI [38]: 27.6 µM | GI50 [39]: 9.37 µM | TGI [39]: 24.6 µM | GI50 [40]: 15 µM | TGI [40]: 39 µM | GI50 [41]: 10.8 µM | TGI [41]: 33.6 µM | GI50 [43]: 9.68 µM | TGI [43]: 27.1 µM | GI50 [44]: 4.19 µM | TGI [44]: 15.6 µM | GI50 [45]: 10.2 µM | TGI [45]: 22.6 µM | GI50 [46]: 8.53 µM | TGI [46]: 31.6 µM | GI50 [49]: 15.8 µM | TGI [49]: 42.7 µM | GI50 [58]: 15.9 µM | TGI [58]: > 100 µM | GI50 [50]: 14.3 µM | TGI [50]: 36.9 µM | GI50 [51]: 14.1 µM | TGI [51]: 32.9 µM | GI50 [52]: 10.9 µM | TGI [52]: 22.9 µM
